Measured values reported in patent publication US9023809B2, “Phenylalanine dipeptide derivatives, compositions and use thereof” (The Key Laboratory of Chemistry For Natural Products of …, priority 2008, dated 2015).
≈ marks a conversion by molar mass, not a printed value. Where “and” joins values, the source holds several entries; their conditions need not be identical. Equal entries are not always repeated. *1 amine or outer side, *2 acyl side, *3 side chain or, on linkers, in order; H or OH if unused. Where a SMILES comes first, the peptide text is derived from it. [ ]: non-standard residue; d: D form. The star is where a group is joined. Tyr(3-NO2) = N[C@@H](Cc1ccc(O)c([N+](=O)[O-])c1)C(=O)O; Phe(4-NO2) = N[C@@H](Cc1ccc([N+](=O)[O-])cc1)C(=O)O; Phe(4-NH2) = Nc1ccc(C[C@H](N)C(=O)O)cc1; Suc = O=C(CCC(=O)[*:2])[*:1]; 4Abz = Nc1ccc(C(=O)O)cc1; Propionyl = CCC(=O)*; Bz = O=C(c1ccccc1)*; ClAc = O=C(CCl)*

Legend:
2.2.15 cells = assay: Cytotoxicity (TC50, median toxic concentration) in 2.2.15 cells; assay type: cell-based
Protocol: Cell control wells were simultaneously set up. […] IC50 and SI were calculated, respectively.

| melting point [°C] | Compound | TC50 (2.2.15 cells) |
| --- | --- | --- |
|  | CC(=O)Nc1ccc(C[C@H](NC(=O)c2ccccc2C(=O)[O-])C(=O)N[C@H](CO)Cc2ccccc2)cc1.[Na+] [Example 53, N-[N-(2-carboxyl-benzoyl)-4-acetamido-L-phenylalanyl]-L-phenylalaninol sodium salt] | 354.18 µg/mL |
| 212 to 214 | COC(=O)[C@H](Cc1ccccc1)NC(=O)[C@H](Cc1ccc(O)cc1)NC(=O)c1ccc([N+](=O)[O-])cc1 |  |
| 174 to 175 | COC(=O)[C@H](Cc1ccccc1)NC(=O)[C@H](Cc1ccccc1)NCc1ccncc1 |  |
|  | COC(=O)[C@H](Cc1ccccc1)NC(=O)[C@H](Cc1ccccc1)NC(=O)c1ccc(NC(=O)CN2CCCC2)cc1 [Example 82, methyl N-{N-[4-(1-pyrrolidyl)acetamido-benzoyl]-L-phenylalanyl}-L-phenylalaninate] | 59.19 µg/mL (≈ 106 µM) |
| 225.5 to 227 | O=C(N[C@@H](Cc1ccc(O)cc1)C(=O)N[C@H](CO)Cc1ccccc1)c1cccc([N+](=O)[O-])c1 |  |
| 221.5 to 222 | COC(=O)[C@H](Cc1ccc(NC(C)=O)cc1)NC(=O)[C@H](Cc1ccccc1)NC(=O)c1ccc(C)cc1 |  |
| 208 to 209.5 | COC(=O)[C@H](Cc1ccccc1)NC(=O)[C@H](Cc1ccccc1)NC(=O)c1ccc(NC(C)=O)cc1 (Ac-[4Abz]-Phe-Phe-OMe) |  |
| 224.5 to 225.5 | COC(=O)[C@H](Cc1ccc([N+](=O)[O-])cc1)NC(=O)[C@H](Cc1ccccc1)NCc1ccncc1 |  |
|  | O=C(N[C@@H](Cc1ccccc1)C(=O)N[C@H](CO)Cc1ccccc1)c1ccccc1Cl [Example 08, N-(N-2-chloro-benzoyl-L-phenylalanyl)-L-phenylalaninol] | 166.70 µg/mL (≈ 382 µM) |
|  | CC(=O)Nc1ccc(C[C@H](NC(=O)[C@H](Cc2ccc(O)cc2)NC(=O)c2ccccc2)C(=O)[O-])cc1.[Na+] [Example 95, N-(N-benzoyl-L-tyrosyl)-4-acetamido-L-phenylalanine sodium salt] (Bz-Tyr-[Phe(4-NH2)](Ac)-OH) | 79.46 µg/mL |
|  | COC(=O)[C@H](Cc1ccc(O)cc1)NC(=O)[C@H](Cc1ccccc1)NC(=O)c1ccc(C)cc1 [Example 17, methyl N-(N-^4-methyl-benzoyl-L-phenylalanyl)-L-tyrosinate] | 465.23 µg/mL (≈ 1010 µM) |
|  | COC(=O)[C@H](Cc1ccccc1)NC(=O)[C@H](Cc1ccccc1)NC(=O)c1ccc(NC(=O)CN(C)C)cc1 [Example 81, methyl N-[N-4-(dimethylamino-acetamido)-benzoyl-L-phenylalanyl]-L-phenylalaninate] | 58.64 µg/mL (≈ 111 µM) |
| 216 to 217 | COC(=O)[C@H](Cc1ccc(O)cc1)NC(=O)[C@H](Cc1ccccc1)NCc1ccncc1 [Example 46, methyl N-(N-isonicotinyl-L-phenylalanyl)-L-tyrosinate] |  |
| 201 to 202.5 | COC(=O)[C@H](Cc1ccccc1)NC(=O)[C@H](Cc1ccc(O)c([N+](=O)[O-])c1)NC(=O)c1ccccc1 (Bz-[Tyr(3-NO2)]-Phe-OMe) |  |
| 225 to 226 | COC(=O)[C@H](Cc1ccccc1)NC(=O)[C@H](Cc1ccc(O)cc1)NC(=O)c1ccc(NC(C)=O)cc1 (Ac-[4Abz]-Tyr-Phe-OMe) |  |
| 222.5 to 224.5 | COC(=O)[C@H](Cc1ccccc1)NC(=O)[C@H](Cc1ccccc1)NC(=O)c1ccc(NC(=O)CCl)cc1 ({ClAc-4Abz}-Phe-Phe-OMe) |  |
|  | O=C(N[C@@H](Cc1ccc(O)cc1)C(=O)N[C@@H](Cc1ccccc1)C(=O)O)c1ccccc1 [Example 93, N-(N-benzoyl-L-tyrosyl)-L-phenylalanine] (Bz-Tyr-Phe-OH) | 577.35 µg/mL (≈ 1330 µM) |
|  | CCC(=O)Nc1ccc(C[C@H](NC(=O)c2ccc(Cl)cc2)C(=O)N[C@@H](Cc2ccccc2)C(=O)OC)cc1 [Example 70, methyl N-[N-(4-chloro-benzoyl)-4-propionamido-L-phenylalanyl]-L-phenylalaninate] | 17.81 µg/mL (≈ 33.2 µM) |
|  | O=C(N[C@@H](Cc1ccccc1)C(=O)N[C@H](CO)Cc1ccccc1)c1ccccc1 [Example 02, N-(N-benzoyl-L-phenylalanyl)-L-phenylalaninol] | 231.12 µg/mL (≈ 574 µM) |
| 190 to 192.5 | COC(=O)[C@H](Cc1ccccc1)NC(=O)[C@H](Cc1ccc(O)cc1)NC(=O)c1ccc(C)cc1 |  |
|  | CC(=O)Nc1ccc(C[C@H](NC(=O)[C@H](Cc2ccc(O)cc2)NC(=O)c2ccc(C)cc2)C(=O)O)cc1 [Example 96, N-(N-4-methyl-benzoyl-L-tyrosyl)-4-acetamido-L-phenylalanine] | 199.67 µg/mL (≈ 397 µM) |
|  | CCC(=O)Nc1ccc(C[C@H](NC(=O)[C@H](Cc2ccccc2)NC(=O)c2ccccc2)C(=O)O)cc1 [Example 94, N-(N-benzoyl-L-phenylalanyl)-4-propionamido-L-phenylalanine] (Bz-Phe-[Phe(4-NH2)](Propionyl)-OH) | 561.21 µg/mL (≈ 1150 µM) |
|  | COC(=O)[C@H](Cc1ccccc1)NC(=O)[C@H](Cc1ccccc1)NC(=O)c1ccccc1 [Example 01, methyl N-(N-benzoyl-L-phenylalanyl)-L-phenylalaninate] (Bz-Phe-Phe-OMe) | 1101.11 µg/mL (≈ 2560 µM) |
|  | O=C([O-])CCC(=O)Nc1ccc(C(=O)N[C@@H](Cc2ccccc2)C(=O)N[C@@H](Cc2ccccc2)C(=O)[O-])cc1.[Na+].[Na+] [Example 92, N-[N-4-(3-carboxyl-propionamido)-benzoyl-L-phenylalanyl]-L-phenylalanine sodium salt] ({Suc-4Abz}-Phe-Phe-OH) | 379.36 µg/mL |
| 200 to 202 | COC(=O)[C@H](Cc1ccccc1)NC(=O)[C@H](Cc1ccc(O)cc1)NC(=O)c1ccccc1 (Bz-Tyr-Phe-OMe) |  |
|  | O=C(O)CCC(=O)OC[C@H](Cc1ccccc1)NC(=O)[C@H](Cc1ccccc1)NC(=O)c1ccccc1 [Example 56, N-(N-benzoyl-L-phenylalanyl)-O-(3-carboxyl-propionyl)-L-phenylalaninol] | 333.33 µg/mL (≈ 663 µM) |
|  | CN(C)CC(=O)Nc1ccc(C(=O)N[C@@H](Cc2ccccc2)C(=O)N[C@H](CO)Cc2ccccc2)cc1 [Example 76, N-[N-4-(dimethylaino-acetamido)-benzoyl-L-phenylalanyl]-L-phenylalaninol] | 37.04 µg/mL (≈ 73.7 µM) |
| 206.5 to 209 | COC(=O)[C@H](Cc1ccccc1)NC(=O)[C@H](Cc1ccc(O)cc1)NCc1ccncc1 |  |
| 151 to 153 | COC(=O)[C@H](Cc1ccccc1)NC(=O)[C@H](Cc1ccccc1)NC(=O)c1ccc(O)cc1 |  |

| Compound | melting point [°C] | TC50 (2.2.15 cells) |
| --- | --- | --- |
| COC(=O)[C@H](Cc1ccc(O)cc1)NC(=O)[C@H](Cc1ccc([N+](=O)[O-])cc1)NC(=O)c1ccc(C)cc1 [Example 18, methyl N-(N-4-methyl-benzoyl-4-nitro-L-phenylalanyl)-L-tyrosinate] | 213 to 215 | 45.28 µg/mL (≈ 89.6 µM) |
| COC(=O)[C@H](Cc1ccccc1)NC(=O)[C@H](Cc1ccccc1)NC(=O)c1cccc(C)c1 [Example 09, methyl N-(N-3-methyl-benzoyl-L-phenylalanyl)-L-phenylalaninate] | 190 to 192 | 240.38 µg/mL (≈ 541 µM) |
| COC(=O)[C@H](Cc1ccc(N)cc1)NC(=O)[C@H](Cc1ccccc1)NC(=O)c1ccccc1.Cl [Example 58, methyl N-(N-benzoyl-L-phenylalanyl)-4-amino-L-phenylalaninate hydrochloride] (Bz-Phe-[Phe(4-NH2)]-OMe) | 173 to 175 | 28.74 µg/mL |
| O=C(N[C@@H](Cc1ccccc1)C(=O)N[C@H](CO)Cc1ccccc1)c1ccc(O)cc1 [Example 27, N-(N-4-hydroxyl-benzoyl-L-phenylalanyl)-L-phenylalaninol] | 223 to 225 | 441.29 µg/mL and 456.75 µg/mL |
| O=C(N[C@@H](Cc1ccccc1)C(=O)N[C@H](CO)Cc1ccc([N+](=O)[O-])cc1)c1ccccc1 [Example 16, N-(N-benzoyl-L-phenylalanyl)-4-nitro-L-phenylalaninol] | 192 to 195 | 52.34 µg/mL (≈ 117 µM) |
| COC(=O)[C@H](Cc1ccc(NC(C)=O)cc1)NC(=O)[C@H](Cc1ccccc1)NC(=O)c1ccccc1 [Example 59, methyl N-(N-benzoyl-L-phenylalanyl)-4-acetamido-L-phenylalaninate] (Bz-Phe-[Phe(4-NH2)](Ac)-OMe) | 228 to 229.5 | 258.69 µg/mL (≈ 531 µM) |
| Cc1ccc(C(=O)N[C@@H](Cc2ccccc2)C(=O)N[C@H](CO)Cc2ccccc2)cc1 [Example 13, N-(N-4-methyl-benzoyl-L-phenylalanyl)-L-phenylalaninol] | 200 to 202 | 776.06 µg/mL (≈ 1860 µM) |
| CC(=O)c1ccc(C[C@@H](CO)NC(=O)[C@H](Cc2ccccc2)NC(=O)c2ccccc2)cc1 [Example 69, N-(N-benzoyl-L-phenylalanyl)-4-acetyl-L-phenylalaninol] | 235.5 to 238 | 75.46 µg/mL (≈ 170 µM) |
| COC(=O)[C@H](Cc1ccccc1)NC(=O)[C@H](Cc1ccc([N+](=O)[O-])cc1)NC(=O)c1ccccc1 [Example 12, methyl N-(N-benzoyl-4-nitro-L-phenylalanyl)-L-phenylalaninate] (Bz-[Phe(4-NO2)]-Phe-OMe) | 202 to 204.5 | 388.03 µg/mL (≈ 816 µM) |
| COC(=O)[C@H](Cc1ccccc1)NC(=O)[C@H](Cc1ccccc1)NC(=O)c1ccccc1Cl [Example 10, methyl N-(N-2-chloro-benzoyl-L-phenylalanyl)-L-phenylalaninate] | 152.5 to 153.5 | 288.68 µg/mL (≈ 621 µM) |
| O=C(N[C@H](CO)Cc1ccccc1)[C@H](Cc1ccc(O)cc1)NCc1ccncc1 [Example 47, N-(N-isonicotinyl-L-tyrosyl)-L-phenylalaninol] | 210 to 212 | 256.78 µg/mL (≈ 633 µM) |
| O=C(N[C@@H](Cc1ccc(O)cc1)C(=O)N[C@H](CO)Cc1ccccc1)c1ccccc1 [Example 21, N-(N-benzoyl-L-tyrosyl)-L-phenylalaninol] | 216 to 217.5 | 28.74 µg/mL (≈ 68.7 µM) |
| COC(=O)[C@H](Cc1ccc([N+](=O)[O-])cc1)NC(=O)[C@H](Cc1ccc([N+](=O)[O-])cc1)NC(=O)c1ccccc1 [Example 15, methyl N-(N-benzoyl-4-nitro-L-phenylalanyl)-4-nitro-L-phenylalaninate] (Bz-[Phe(4-NO2)]-[Phe(4-NO2)]-OMe) | 220 to 221.5 | 45.69 µg/mL (≈ 87.8 µM) |
